Active and inactive are the calls of the source. No cut-off for these calls is given here.
Columns and labels:
PANC-1 [1] = assay: Antitumor activity against human PANC-1 cells xenografted in BALB/c mouse assessed as inhibition of tumor weight at 40 mg/kg, ip for 4 weeks administered for 5 days consecutively and 2 days without treatment on every week in presence of JQ1; format: functional, organism-based
[2] = Toxicity in BALB/c mouse xenografted with human PANC-1 cells assessed as pathological changes in lung at 40 mg/kg, ip for 4 weeks administered for 5 days consecutively and 2 days without treatment on every week by H and E staining based analysis; format: organism-based; conditions: in vivo, 672 h
PANC-1 [3] = assay: Induction of cell cycle arrest in human PANC-1 cells assessed as accumulation at G2 phase at 2 uM incubated for 24 hrs by PI staining based flow cytometry (reference value: 9.36 %); format: functional
PANC-1 [4] = assay: Induction of apoptosis in human PANC-1 cells assessed as early apoptotic cells at 2 uM incubated for 48 hrs in presence of JQ1 by Annexin V-FITC/PI staining based flow cytometry (reference value: 1.41 %); format: functional
PANC-1 [5] = assay: Induction of apoptosis in human PANC-1 cells assessed as early apoptotic cells at 1.2 uM incubated for 48 hrs by Annexin V-FITC/PI staining based flow cytometry (reference value: 1.41 %); format: functional
PANC-1 [6] = assay: Antitumor activity against human PANC-1 cells xenografted in BALB/c mouse at 40 mg/kg, ip for 4 weeks administered for 5 days consecutively and 2 days without treatment on every week in presence of JQ1 relative to control; format: functional; conditions: PANC-1, 672 h, read-out: TGI
PANC-1 [7] = assay: Induction of apoptosis in human PANC-1 cells assessed as late apoptotic cells at 2 uM incubated for 48 hrs by Annexin V-FITC/PI staining based flow cytometry (reference value: 3.87 %); format: functional
PANC-1 [8] = assay: Induction of cell cycle arrest in human PANC-1 cells assessed as accumulation at G2 phase at 0.6 uM incubated for 24 hrs by PI staining based flow cytometry (reference value: 9.36 %); format: functional
PANC-1 [9] = assay: Antiproliferative activity against human PANC-1 cells expressing wild-type BRCA assessed as inhibition of cell survival incubated for 5 days by CCK8 assay; format: functional, cell-based; conditions: PANC-1, 120 h
PANC-1 [10] = assay: Induction of cell cycle arrest in human PANC-1 cells assessed as accumulation at S phase at 0.6 uM incubated for 24 hrs by PI staining based flow cytometry (reference value: 38.94 %); format: functional
[11] = Toxicity in BALB/c mouse xenografted with human PANC-1 cells assessed as animal mortality at 40 mg/kg, ip for 4 weeks administered for 5 days consecutively and 2 days without treatment on every week; format: organism-based; conditions: in vivo, 672 h
PANC-1 [12] = assay: Induction of apoptosis in human PANC-1 cells assessed as necrotic cells at 2 uM incubated for 48 hrs by Annexin V-FITC/PI staining based flow cytometry (reference value: 3.09 %); format: functional
PANC-1 [13] = assay: Induction of apoptosis in human PANC-1 cells assessed as late apoptotic cells at 10 uM incubated for 48 hrs by Annexin V-FITC/PI staining based flow cytometry (reference value: 3.87 %); format: functional
PANC-1 [14] = assay: Induction of apoptosis in human PANC-1 cells assessed as viable cells at 2 uM incubated for 48 hrs in presence of JQ1 by Annexin V-FITC/PI staining based flow cytometry (reference value: 91.64 %); format: functional; conditions: read-out: Activity
PANC-1 [15] = assay: Induction of cell cycle arrest in human PANC-1 cells assessed as accumulation at S phase at 2 uM incubated for 24 hrs by PI staining based flow cytometry (reference value: 38.94 %); format: functional
PANC-1 [16] = assay: Induction of cell cycle arrest in human PANC-1 cells assessed as accumulation at G0/G1 phase at 2 uM incubated for 24 hrs in presence of JQ1 by PI staining based flow cytometry relative to control; format: functional
PANC-1 [17] = assay: Induction of cell cycle arrest in human PANC-1 cells assessed as accumulation at G1 phase at 0.6 uM incubated for 24 hrs by PI staining based flow cytometry (reference value: 51.70 %); format: functional
BXPC-3 = assay: Antiproliferative activity against human BXPC-3 cells expressing wild-type BRCA assessed as inhibition of cell survival incubated for 5 days by CCK8 assay; format: functional, cell-based; conditions: BXPC-3, 120 h
PANC-1 [18] = assay: Induction of apoptosis in human PANC-1 cells assessed as viable cells at 2 uM incubated for 48 hrs by Annexin V-FITC/PI staining based flow cytometry (reference value: 91.64 %); format: functional; conditions: read-out: Activity
CAPAN-1 = assay: Antiproliferative activity against human CAPAN-1 cells expressing BRCA-/- assessed as inhibition of cell survival incubated for 5 days by CCK8 assay; format: functional, cell-based; conditions: CAPAN-1, 120 h
[19] = Toxicity in BALB/c mouse xenografted with human PANC-1 cells assessed as animal mortality at 40 mg/kg, ip for 4 weeks administered for 5 days consecutively and 2 days without treatment on every week in presence of JQ1; format: organism-based; conditions: in vivo, 672 h
PANC-1 [20] = assay: Induction of apoptosis in human PANC-1 cells assessed as late apoptotic cells at 5 uM incubated for 48 hrs by Annexin V-FITC/PI staining based flow cytometry (reference value: 3.87 %); format: functional
PANC-1 [21] = assay: Induction of cell cycle arrest in human PANC-1 cells assessed as accumulation at G2/M phase incubated for 24 hrs by PI staining based flow cytometry; format: functional; conditions: dose 0.6-2 µM
PANC-1 [22] = assay: Induction of cell cycle arrest in human PANC-1 cells assessed as accumulation at G1 phase at 2 uM incubated for 24 hrs by PI staining based flow cytometry (reference value: 51.70 %); format: functional
PANC-1 [23] = assay: Induction of apoptosis in human PANC-1 cells assessed as early apoptotic cells at 2 uM incubated for 48 hrs by Annexin V-FITC/PI staining based flow cytometry (reference value: 1.41 %); format: functional
PANC-1 [24] = assay: Antitumor activity against human PANC-1 cells xenografted in BALB/c mouse assessed as reduction in tumor growth at 40 mg/kg, ip for 4 weeks administered for 5 days consecutively and 2 days without treatment on every week in presence of JQ1; format: functional, organism-based
PANC-1 [25] = assay: Induction of apoptosis in human PANC-1 cells assessed as early apoptotic cells at 10 uM incubated for 48 hrs by Annexin V-FITC/PI staining based flow cytometry (reference value: 1.41 %); format: functional
[26] = Toxicity in BALB/c mouse xenografted with human PANC-1 cells assessed as pathological changes in liver at 40 mg/kg, ip for 4 weeks administered for 5 days consecutively and 2 days without treatment on every week in presence of JQ1 by H and E staining based analysis; format: organism-based; conditions: in vivo, 672 h
PANC-1 [27] = assay: Induction of apoptosis in human PANC-1 cells assessed as viable cells at 1.2 uM incubated for 48 hrs by Annexin V-FITC/PI staining based flow cytometry (reference value: 91.64 %); format: functional; conditions: read-out: Activity
PANC-1 [28] = assay: Induction of apoptosis in human PANC-1 cells assessed as viable cells at 0.6 uM incubated for 48 hrs by Annexin V-FITC/PI staining based flow cytometry (reference value: 91.64 %); format: functional; conditions: read-out: Activity
PANC-1 [29] = assay: Induction of apoptosis in human PANC-1 cells assessed as early apoptotic cells at 0.6 uM incubated for 48 hrs by Annexin V-FITC/PI staining based flow cytometry (reference value: 1.41 %); format: functional

SMILES	inhibition (PANC-1 [1])	Activity [2]	Activity (PANC-1 [3]) [%]	Activity (PANC-1 [4]) [%]	Activity (PANC-1 [5]) [%]	inhibition in vivo at 40 mg/kg (PANC-1 [6]) [%]	Activity (PANC-1 [7]) [%]	Activity (PANC-1 [8]) [%]	IC50 (PANC-1 [9]) [µM]	Activity (PANC-1 [10]) [%]	Activity [11]	Activity (PANC-1 [12]) [%]	Activity (PANC-1 [13]) [%]	viability at 2 µM (PANC-1 [14]) [%]	Activity (PANC-1 [15]) [%]	IC50 (BXPC-3) [µM]	viability at 2 µM (PANC-1 [18]) [%]	IC50 (CAPAN-1) [µM]	Activity (PANC-1 [22]) [%]	Activity (PANC-1 [23]) [%]	other results
O=C(c1cc(Cc2n[nH]c(=O)c3ccccc23)ccc1F)N1CCN(C(=O)C2CC2)CC1 [OLAPARIB]	Active	Non-toxic	14.61	5.44	2.88	80.7	4.61	10.68	< 10	42.54	Non-toxic	2.23	5.35	68.3	39.4	< 10	89.7	< 10	45.99	3.48	Activity (PANC-1 [16]): 12.43%; Activity (PANC-1 [17]): 46.78%; Activity [19]: Non-toxic; Activity (PANC-1 [20]): 4.7%; Activity (PANC-1 [21]): Dose-dependent-effect; Activity (PANC-1 [24]): Active; Activity (PANC-1 [25]): 3.98%; Activity [26]: Non-toxic; viability at 1.2 µM (PANC-1 [27]): 89.1%; viability at 0.6 µM (PANC-1 [28]): 90.3%; Activity (PANC-1 [29]): 2.25%
Cc1sc2c(c1C)C(c1ccc(Cl)cc1)=N[C@@H](CC(=O)OC(C)(C)C)c1nnc(C)n1-2	–	–	12.12	–	–	–	14.01	–	< 10	–	–	6.51	–	–	28.44	< 10	74.4	< 10	59.44	6.1	–
O=C1CCC(N2C(=O)c3cccc(NC(=O)CNCCCCCCCCCCC(=O)N4CCN(C(=O)c5cc(Cc6n[nH]c(=O)c7ccccc67)ccc5F)CC4)c3C2=O)C(=O)N1 (configuration not stated)	Active	Non-toxic	14.63	8.77	3.8	≤ 98.5	5.84	10.52	< 10	44.14	Non-toxic	3.54	5.33	64.3	41.71	< 10	86.3	< 10	43.66	4.35	Activity (PANC-1 [16]): 50.25%; Activity (PANC-1 [17]): 45.34%; Activity [19]: Non-toxic; Activity (PANC-1 [20]): 4.37%; Activity (PANC-1 [21]): Dose-dependent-effect; Activity (PANC-1 [24]): Active; Activity (PANC-1 [25]): 4.38%; Activity [26]: Non-toxic; viability at 1.2 µM (PANC-1 [27]): 89.8%; viability at 0.6 µM (PANC-1 [28]): 88.9%; Activity (PANC-1 [29]): 3.9%

— ChEMBL document CHEMBL6096630, “Enhancing therapeutic efficacy in homologous recombination-proficient pancreatic cancer via the combination of PARP1-PROTAC and a BRD4 inhibitor” (Bioorg Med Chem, 2024)
